Data taken from patent US10641781B2, “Method, composition and device for sampling natriuretic peptides in a biological fluid” (CRIMSON U.S. ASSETS, LLC, priority 2008, dated 2020).
Entries after “also recorded” stand apart in the source; their conditions may differ. Counter-ions that a name gives are not always drawn. Where a SMILES comes first, the peptide text is derived from it. [ ]: non-standard residue; d: D form. The star is where a group is joined. Sta = CC(C)C[C@H](N)[C@@H](O)CC(=O)O; Isovaleryl = CC(C)CC(=O)*; CH2Cl = ClC*

How the values were obtained:
BNP1-32 hydrolysis = BNP1-32 hydrolysis in heparin plasma treated with protease inhibitors, room temperature, MSIA; format: biochemical, human; conditions: for effect on BNP hydrolysis: BNP1-32 10 ng/mL
Text: (§1) In order to observe, characterize and identify the BNP hydrolysis products a Mass Spectrometric Immunoassay (MSIA) was developed and employed in the analysis of BNP. This technique is broadly described in, e.g., Nelson et al. (1995) Anal. Chem. 67, 1153-1158; Tubbs et al. (2001) Anal. Biochem. 289, 26-35; Kiernan et al. (2002) Anal. Biochem. 301, 49-56; Niederkofler et al. (2003) J. Lipid Res. 44, 630-639 and U.S. Pat. Nos. 6,783,672; 6,974,704; 7,083,723; 7,083,724; 7,087,163; 7,087,164; 7,087,165; and 7,087,163. The basic methodology is described in the context of BNP although the technique is also applicable to ANP and other peptides of interest.
(§2) Briefly, MSIA entails the use of affinity capture, to extract BNP and many of its' hydrolysis products for mass spectrometric detection, to observe and identify products of BNP hydrolysis. Therefore, synthesized BNP1-32 was added to room temperature plasma (from blood collected in heparinized blood collection tubes). At a several times post-spiking BNP1-32 into the plasma, aliquots of the spiked plasma were analyzed to monitor the progress of BNP1-32 hydrolysis. The results of performing a series of analyses on aliquots removed and analyzed every hour for up to six hours post-addition of BNP1-32 at 100 ng/mL are shown in FIG. 2. […] The last two species are indistinguishable in the chart due to similar amino acid compositions. […]
Next, the individual protease inhibitors, including some of those included in protease inhibitor cocktail set III (EMD) were tested using the protocols described supra. Briefly, aliquots of heparin plasma were treated with each one of the protease inhibitors. To each aliquot of plasma, BNP1-32 was added at 10 ng/mL and incubated at room temperature. Aliquots were sequentially removed and analyzed for BNP hydrolysis.
Briefly, aliquots of heparin plasma were treated with each one of these protease inhibitors. To each aliquot of plasma, BNP1-32 was added at 10 ng/mL and incubated at room temperature. Aliquots were sequentially removed and analyzed for BNP hydrolysis.
Further testing added to the list of inexpensive protease inhibitors effective in combination with AEB SF in avoiding adducts starting with benzamidine hydrochloride (Calbiochem catalog no. 199001). […] Briefly, aliquots of heparin plasma were treated with the protease inhibitor. To each aliquot of plasma, BNP1-32 was added at 10 ng/mL and incubated at room temperature. Aliquots were sequentially removed and analyzed for BNP hydrolysis.
In addition, PPACK I dihydrochloride (Calbiochem catalog no. 520222) and PPACK II trifluoroacetate salt (Calbiochem catalog no. 520219) were also tested at a concentration of 1 mM each. […]

[1] = weak basic conditions (pH 8-9); cited from earlier work
BNP hydrolysis [2] = assay: BNP hydrolysis in EDTA versus heparin plasma at room temperature, MSIA; format: biochemical, human; conditions: plasma spiked with BNP1-32, room temperature, aliquots at 1 hour and 2 hours
Experimental: Blood from a single individual was collected in both heparin and EDTA blood collection tubes. The collected blood was centrifuged to remove cellular components and the supernatant (plasma) was collected. To the EDTA and heparin plasma, BNP1-32 was added and incubated at room temperature with aliquots removed for analysis of BNP hydrolysis at 1 hour and 2 hours.

[3] = Time course of BNP1-32 hydrolysis in plasma without inhibitor, by mass spectrometric immunoassay (MSIA); format: in vitro ADME, human; conditions: heparin plasma, no inhibitor, room temperature, BNP1-32 at 100 ng/mL, four hours after addition
Text: as §1, §2

[4] = cited from earlier work
[5] = after separation of plasma from whole blood; cited from earlier work
BNP hydrolysis [6] = assay: BNP stability in plasma stored at -70 C, MSIA; format: biochemical, human; conditions: tested on day of collection and six months later
Experimental: The limited proteolysis prior to the addition of the protease inhibitors is preserved in the sample. The sampled plasma was assayed for the presence of BNP fragments on the day of collection and then six month later. […] This may reflect the presence of metalloproteinases in heparinized blood.
To examine this, BNP peptides corresponding to those previously identified as products resulting from the hydrolysis of BNP1-32 were synthesized and added to EDTA plasma treated with 10 mM AEBSF and 20 mM Benzamidine. An aliquot of the sample was analyzed for the added BNP peptides soon after the addition of the peptides to the plasma, while the rest of the plasma was stored at −70° C. for 7 weeks. After 7 weeks of storage the plasma was removed from the freezer, thawed and analyzed for the existence of the added BNP peptides.

proteolysis of BNP = conditions: sampled blood or plasma; cited from earlier work

Molecule: CC(C)C[C@H](NC(=O)[C@@H](O)[C@H](N)Cc1ccccc1)C(=O)O [Bestatin]
- effect on BNP hydrolysis (BNP1-32 hydrolysis; inhibitor at 0.5 mM): little or no effect on BNP proteolysis; also recorded: did not appreciably prevent the hydrolysis of BNP

Molecule: Cl.NCCc1ccc(S(=O)(=O)F)cc1 [AEBSF, 4-(2-Aminoethyl) benzenesulfonyl fluoride hydrochloride]
- effect on BNP hydrolysis (BNP1-32 hydrolysis; inhibitor at 1 mM, hydrochloride): slowed the hydrolysis of BNP; also recorded: reduced BNP proteolysis
- effect on BNP hydrolysis (BNP1-32 hydrolysis; inhibitor at 2.5 mM, hydrochloride): almost completely inhibited the hydrolysis of BNP; also recorded: reduced BNP proteolysis
- effect on BNP hydrolysis (BNP1-32 hydrolysis; inhibitor at 5 mM, hydrochloride): almost completely inhibited the hydrolysis of BNP; also recorded: reduced BNP proteolysis
- hydrolysis of the inhibitor [1]: slow hydrolysis

Molecule: Heparin
- effect of anti-coagulant on BNP hydrolysis (BNP hydrolysis [2]): relatively ineffective in preventing BNP proteolysis
- effect of anti-coagulant on BNP hydrolysis (BNP hydrolysis [2]; listed as heparin): progress towards the production of BNP hydrolysis products smaller than the BNP3-32

Molecule: CC(C)C[C@H](NC(=O)[C@H]1O[C@@H]1C(=O)O)C(=O)NCCCCN=C(N)N [E64]
- effect on BNP hydrolysis (BNP1-32 hydrolysis; inhibitor at 1 mM): little or no effect on BNP proteolysis; also recorded: did not appreciably prevent the hydrolysis of BNP

Molecule: BNP1-32: 32-amino acid B-type natriuretic peptide; synthesized BNP1-32 spiked into plasma
- hydrolysis of BNP1-32 in plasma [3]: all of the BNP1-32 appears to have been processed into smaller peptides
- half-life (t1/2) in vivo [4]: approximately 20 minutes
- time within which BNP is proteolyzed in vitro [5]: ≤ 24 h

Molecule: O=C([O-])CN(CCN(CC(=O)[O-])CC(=O)O)CC(=O)[O-].[Na+].[Na+].[Na+] [EDTA, ethylenediamine tetracetic acid]
- effect of anti-coagulant on BNP hydrolysis (BNP hydrolysis [2]): BNP hydrolysis stops with the formation of the BNP3-32; also recorded: reduce BNP hydrolysis
- BNP hydrolysis in EDTA plasma without protease inhibitors (BNP hydrolysis [6]): the hydrolysis stops at the formation of the BNP3-32; also recorded: proteolysis of BNP1-32 leading to the formation of BNP3-32

Molecule: CC(C)CC(=O)N[C@H](C(=O)N[C@H](C(=O)N[C@@H](CC(C)C)[C@@H](O)CC(=O)N[C@@H](C)C(=O)N[C@@H](CC(C)C)[C@@H](O)CC(=O)O)C(C)C)C(C)C [Pepstatin A] (Isovaleryl-VV[Sta]A[Sta]-OH)
- effect on BNP hydrolysis (BNP1-32 hydrolysis; inhibitor at 0.1 mM): little or no effect on BNP proteolysis; also recorded: did not appreciably prevent the hydrolysis of BNP

Molecule: N=C(N)c1ccccc1 [Benzamidine hydrochloride, Benzamidine]
- effectiveness in slowing BNP hydrolysis relative to other inhibitors (BNP1-32 hydrolysis; 1 mM): better than PPACK I and PPACK II, but it was not as effective as AEBSF
- effect on BNP hydrolysis (BNP1-32 hydrolysis; inhibitor at 1 mM): slowed the hydrolysis of BNP
- effect on BNP hydrolysis (BNP1-32 hydrolysis; inhibitor at 1 mM, listed as Benzamidine): reduced BNP proteolysis

Molecule: NC(N)=NCCC[C@H](NC(=O)[C@@H]1CCCN1C(=O)[C@H](N)Cc1ccccc1)C(=O)CCl [PPACK]
- effectiveness in arresting proteolysis of BNP (proteolysis of BNP): most effective in arresting proteolysis of BNP

Molecule: NC(N)=NCCC[C@H](NC(=O)[C@H](Cc1ccccc1)NC(=O)[C@H](N)Cc1ccccc1)C(=O)CCl [PPACK II] (H-[dF]-Phe-Arg-CH2Cl)
- effect on BNP hydrolysis (BNP1-32 hydrolysis; inhibitor at 1 mM): slowed the rate of BNP hydrolysis; also recorded: reduced BNP proteolysis

Molecule: CC(=O)N[C@@H](CC(C)C)C(=O)N[C@@H](CC(C)C)C(=O)N[C@H](C=O)CCCNC(=N)N [Leupeptin]
- effect on BNP hydrolysis (BNP1-32 hydrolysis; inhibitor at 0.1 mM): slowed the hydrolysis of BNP
- effect on BNP hydrolysis (BNP1-32 hydrolysis; inhibitor at 1 mM): slow BNP proteolysis

Molecule: Cl.Cl.NC(N)=NCCC[C@H](NC(=O)[C@@H]1CCCN1C(=O)[C@H](N)Cc1ccccc1)C(=O)CCl [PPACK I]
- effect on BNP hydrolysis (BNP1-32 hydrolysis; inhibitor at 1 mM): slowed the rate of BNP hydrolysis; also recorded: reduced BNP proteolysis
